Laboratory results reported in paper PMC10672575, “The Polyketides with Antimicrobial Activities from a Mangrove Endophytic Fungus Trichoderma lentiforme ML-P8-2” (Marine Drugs, 2023).
Converted amounts (≈) assume the structure as drawn.

What was measured:
Pseudomonas aeruginosa = test: Antibacterial MIC, serial dilution in 96-well plates
Method: (§1) All measurements were conducted in triplicate. Ampicillin and ketoconazole were applied as positive controls for antibacterial and antifungal assays, respectively, and DMSO was utilized as a blank control.

Candida albicans = test: Antifungal MIC, serial dilution in 96-well plates
Method: as §1

AChE = AChE (Homo sapiens, UniProt P22303); test: biochemical; conditions: average of two independent experiments; read-out: IC50 for AChE inhibitory activities
Method: Donepezil hydrochloride was taken as a positive control. All measurements were conducted in triplicate from two independent experiments. The reported IC50 was the average value of two independent experiments.

Salmonella typhimurium = test: Antibacterial MIC, serial dilution in 96-well plates; conditions: Salmonella enterica
Method: as §1

Penicillium italicum = test: Antifungal MIC, serial dilution in 96-well plates
Staphylococcus aureus = test: Antibacterial MIC, serial dilution in 96-well plates
Method: as §1

[1] = system: methicillin-resistant Staphylococcus aureus (MRSA); test: as above
Method: as §1

Bacillus subtilis = test: as above
Method: as §1

Cytotoxicity, MTT assay = format: cell-based; conditions: human, A549 lung cancer cells
Method: The cytotoxicities of compounds 1–10 and eujavanicol A on cells were assessed using MTT assay as described previously. Six cell lines were used, MDA-MB-435 (breast cancer cells), MDA-MB-231 (breast cancer cells), HCT116 (colon cancer cells), A549 (lung cancer cells), SNB19 (glioma cells), and PC3 (prostate cancer cells), which were acquired from Fu Erbo Biotechnology Co., Ltd. (Guangzhou, China).

Sequence of AChE (P22303 32-614): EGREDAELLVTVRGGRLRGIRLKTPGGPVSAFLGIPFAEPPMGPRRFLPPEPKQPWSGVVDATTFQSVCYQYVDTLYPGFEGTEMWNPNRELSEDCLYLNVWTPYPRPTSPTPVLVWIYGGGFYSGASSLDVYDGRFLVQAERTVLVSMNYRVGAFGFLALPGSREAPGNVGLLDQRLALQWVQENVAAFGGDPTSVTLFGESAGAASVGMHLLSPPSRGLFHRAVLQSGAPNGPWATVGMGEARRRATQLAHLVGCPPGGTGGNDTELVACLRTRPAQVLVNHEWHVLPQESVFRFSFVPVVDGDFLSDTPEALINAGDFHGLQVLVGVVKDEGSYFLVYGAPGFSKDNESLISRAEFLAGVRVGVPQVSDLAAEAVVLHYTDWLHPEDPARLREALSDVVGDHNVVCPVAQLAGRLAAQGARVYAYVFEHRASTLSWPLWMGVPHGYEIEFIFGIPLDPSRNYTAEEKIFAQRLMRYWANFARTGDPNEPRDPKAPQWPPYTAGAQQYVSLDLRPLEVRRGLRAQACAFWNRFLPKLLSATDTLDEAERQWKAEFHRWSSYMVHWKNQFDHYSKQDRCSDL

| SMILES | MIC (Pseudomonas aeruginosa) | MIC (Candida albicans) | IC50 (AChE) | MIC (Salmonella typhimurium) | MIC (Penicillium italicum) | MIC (Staphylococcus aureus) | MIC [1] | MIC (Bacillus subtilis) | IC50 (Cytotoxicity, MTT assay) |
| --- | --- | --- | --- | --- | --- | --- | --- | --- | --- |
| CC[C@@H](C)[C@H]1C=C[C@H]2[C@H](OC(=O)C/C(C)=C\C(=O)O)[C@H](O)C[C@@H](C)[C@@H]2[C@@]1(C)C(=O)CCO [Compound 10, tandyukisin C] | > 100 µM | 25 µM (≈ 11.3 µg/mL) | 50.9 ± 0.5 µM | > 100 µM | 50 µM (≈ 22.5 µg/mL) | > 100 µM | > 100 µM | > 100 µM | – |
| CC[C@@H](C)[C@H]1C=C[C@H]2[C@H](O)[C@H](O)C[C@@H](C)[C@@H]2[C@@]1(C)C(=O)CCO [Eujavanicol A, eujavanicol A] | > 100 µM | 25 µM (≈ 8.11 µg/mL) | 32.4 ± 0.7 µM | > 100 µM | 25 µM (≈ 8.11 µg/mL) | > 100 µM | > 100 µM | > 100 µM | – |
| CC[C@@H](C)[C@H]1C=C[C@H]2[C@H](O)[C@H](OC(=O)/C=C(\C)CC(=O)O)C[C@@H](C)[C@@H]2[C@@]1(C)C(=O)CCO [Compound 7, trichoharzin] | > 100 µM | 50 µM (≈ 22.5 µg/mL) | 38.3 ± 0.4 µM | > 100 µM | 12.5 µM (≈ 5.63 µg/mL) | > 100 µM | > 100 µM | > 100 µM | – |
| CC(=O)N1CCN(c2ccc(OCC3COC(Cn4ccnc4)(c4ccc(Cl)cc4Cl)O3)cc2)CC1 (centres unmarked) [Ketoconazole, reference compound] | – | 0.13 µM (≈ 0.0691 µg/mL) | – | – | 1.56 µM (≈ 0.829 µg/mL) | – | – | – | – |
| CC[C@@H](C)[C@H]1C=C[C@H]2[C@H](O)[C@H](OC(=O)C/C(C)=C/C(=O)O)C[C@@H](C)[C@@H]2[C@@]1(C)C(=O)CCO [Compound 9, tandyukisin G] | 50 µM (≈ 22.5 µg/mL) | 25 µM (≈ 11.3 µg/mL) | 43.6 ± 0.4 µM | > 100 µM | 6.25 µM (≈ 2.82 µg/mL) | 50 µM (≈ 22.5 µg/mL) | > 100 µM | > 100 µM | – |
| CCC(C)C1C=CC2C(O)C(OC(=O)C=C(C)CC(=O)O)CC(C)C2C1(C)C(=O)CCO (centres unmarked) [Compound 6, Tandyukisin J] | > 100 µM | 25 µM (≈ 11.3 µg/mL) | 40.2 ± 0.7 µM | > 100 µM | 6.25 µM (≈ 2.82 µg/mL) | > 100 µM | > 100 µM | > 100 µM | – |
| CC[C@@H](C)[C@H]1C=C[C@H]2[C@H](O)[C@H](OC(=O)C/C(C)=C\C(=O)O)C[C@@H](C)[C@@H]2[C@@]1(C)C(=O)CCO [Compound 8, tandyukisin D] | 50 µM (≈ 22.5 µg/mL) | 50 µM (≈ 22.5 µg/mL) | 77.9 ± 1.7 µM | 50 µM (≈ 22.5 µg/mL) | 12.5 µM (≈ 5.63 µg/mL) | > 100 µM | > 100 µM | > 100 µM | – |
| COc1cc(OC)c2c(=O)c(CO)c(C)oc2c1 [Compound 2, 3-(hydroxymethyl)-5,7-dimethoxy-2-methyl-4H-chromen-4-one] | > 100 µM | 100 µM (≈ 25 µg/mL) | 33.7 ± 0.4 µM | > 100 µM | > 100 µM | > 100 µM | > 100 µM | > 100 µM | – |
| COc1cc(O)c2c(=O)c(CO)c(C)oc2c1 [Compound 3, 5-hydroxy-3-(hydroxymethyl)-7-methoxy-2-methyl-4H-chromen-4-one] | > 100 µM | 25 µM (≈ 5.91 µg/mL) | 20.6 ± 0.3 µM | > 100 µM | > 100 µM | > 100 µM | > 100 µM | > 100 µM | – |
| COc1cc(O)c2c(=O)c(C3CC(O)C(=O)O3)c(C)oc2c1 (centres unmarked) [Compound 1, 5-hydroxy-3-((3’R, 5’S)-3’-hydroxy-2’-oxotetrahydrofuran-5’-yl)-7-methoxy-2-methyl-4H-chromen-4-one] | > 100 µM | 50 µM (≈ 15.3 µg/mL) | 38.6 ± 0.2 µM | > 100 µM | > 100 µM | > 100 µM | > 100 µM | > 100 µM | 47.2 ± 5.5 µM |
| CC1(C)S[C@@H]2[C@H](NC(=O)[C@H](N)c3ccccc3)C(=O)N2[C@H]1C(=O)O [Ampicillin, reference compound] | 0.13 µM (≈ 0.0454 µg/mL) | – | – | 0.25 µM (≈ 0.0874 µg/mL) | – | 0.25 µM (≈ 0.0874 µg/mL) | 0.25 µM (≈ 0.0874 µg/mL) | 0.25 µM (≈ 0.0874 µg/mL) | – |
